This note sets out measurements from ChEMBL document CHEMBL3243928, “N-(2,4,5-Trihydroxyphenehtyl)normetazocine, a potential irreversible inhibitor of the narcotic receptor” (J Med Chem, 1977).

Activity calls are given as the source filed them. The rule behind the calls is not given here.

In data set [1] the test system is Mus musculus. The experiment in a line: Ratio of morphine to compound for analgesic activity in ip dosed mouse. The class given is functional.
Data set [2] deals with NG108-15. The experiment in a line: Antagonist activity at opiate receptor in mouse/rat NG108-15 cells assessed as inhibition of adenylate cyclase activity at 10^-7 M after 3 mins. The class given is cell-based.
The target of data set [3] is Opioid receptor (Rattus norvegicus) (UniProt P33533+P34975+P33535). Kind of data set: Ratio of morphine to compound for binding affinity to rat brain opiate receptor.
The subject of data set [4] is Mus musculus. The experiment in a line: Inhibition of norepinephrine release in sc dosed mouse heart administered 60 mins before [3H]-norepinephrine challenge. The class given is functional.
The test system of data set [5] is NG108-15. Kind of data set: Antagonist activity at opiate receptor in mouse/rat NG108-15 cells assessed as inhibition of adenylate cyclase activity at 10^-3 M after 3 mins. The class given is cell-based.
For data set [6], the system named is Mus musculus. The experiment in a line: Toxicity in mouse at 80 mg/kg, iv. The class given is organism-based. More on the design: dose 80 mg/kg, route intravenous. The note with it: in vivo.
The test system of data set [7] is Mus musculus. Kind of data set: Antinociceptive activity in mouse at 50 mg/kg, sc by hot-plate assay. In kind it is functional, organism-based. Details: dose 50 mg/kg.
The subject of data set [8] is Mus musculus. Kind of data set: Inhibition of norepinephrine release in mouse heart at >150 umol/kg, sc administered 60 mins before [3H]-norepinephrine challenge. The class given is functional, organism-based.
Data set [9] concerns NG108-15. The experiment in a line: Antagonist activity at opiate receptor in mouse/rat NG108-15 cells assessed as inhibition of adenylate cyclase activity at 2 x 10^-4 M after 3 mins. In kind it is cell-based.
For data set [10], the system named is Mus musculus. Kind of data set: Toxicity in mouse at 5 mg/kg, iv. In kind it is organism-based. Details: dose 5 mg/kg, route intravenous. The conditions noted are these: in vivo.
Data set [11] concerns Mus musculus. Kind of data set: Toxicity in iv dosed mouse. The note with it: in vivo. In kind it is organism-based.
The mark [12] stands for this setting: Mus musculus, sc, read-out: ED50.

Opioid receptor (Rattus norvegicus), sequence (P33533 whole entry, looked up): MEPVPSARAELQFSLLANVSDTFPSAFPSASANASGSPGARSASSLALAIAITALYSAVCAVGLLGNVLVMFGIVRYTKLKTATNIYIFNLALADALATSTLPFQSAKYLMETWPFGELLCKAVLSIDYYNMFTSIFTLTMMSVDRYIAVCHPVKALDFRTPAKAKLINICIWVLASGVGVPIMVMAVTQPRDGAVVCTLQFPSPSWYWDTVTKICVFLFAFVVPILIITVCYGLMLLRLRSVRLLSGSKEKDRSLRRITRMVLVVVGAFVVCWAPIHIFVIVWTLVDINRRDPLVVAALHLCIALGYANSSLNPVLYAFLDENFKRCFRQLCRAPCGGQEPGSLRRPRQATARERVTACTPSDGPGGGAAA
Opioid receptor (Rattus norvegicus), sequence (P33535 whole entry, looked up): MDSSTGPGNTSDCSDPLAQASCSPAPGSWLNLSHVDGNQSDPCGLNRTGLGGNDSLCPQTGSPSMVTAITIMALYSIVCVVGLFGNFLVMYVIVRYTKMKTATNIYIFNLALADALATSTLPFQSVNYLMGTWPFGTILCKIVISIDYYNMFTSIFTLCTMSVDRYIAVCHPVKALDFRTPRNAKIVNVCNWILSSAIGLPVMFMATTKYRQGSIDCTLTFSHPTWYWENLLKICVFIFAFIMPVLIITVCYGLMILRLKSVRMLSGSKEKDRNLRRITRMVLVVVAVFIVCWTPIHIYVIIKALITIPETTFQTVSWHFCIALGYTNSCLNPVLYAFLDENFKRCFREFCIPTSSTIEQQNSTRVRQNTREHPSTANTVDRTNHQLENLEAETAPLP
Opioid receptor (Rattus norvegicus), sequence (P34975 whole entry, looked up): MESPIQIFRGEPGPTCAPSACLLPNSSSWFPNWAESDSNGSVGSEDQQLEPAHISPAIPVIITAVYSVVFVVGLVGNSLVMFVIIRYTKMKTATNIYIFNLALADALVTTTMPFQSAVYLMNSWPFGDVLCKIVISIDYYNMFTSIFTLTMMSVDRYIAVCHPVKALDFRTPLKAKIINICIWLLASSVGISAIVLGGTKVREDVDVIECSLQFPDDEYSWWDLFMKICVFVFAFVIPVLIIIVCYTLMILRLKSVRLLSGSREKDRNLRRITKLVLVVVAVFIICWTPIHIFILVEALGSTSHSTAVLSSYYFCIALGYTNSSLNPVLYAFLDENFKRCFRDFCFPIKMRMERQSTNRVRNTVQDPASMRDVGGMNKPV

Take `CC1C2Cc3ccc(O)cc3C1(C)CCN2CCc1ccc(N)cc1` (stereo not drawn): the Ratio in data set [1] turned out to be 20. For the compound `CN1CC[C@]23c4c5ccc(O)c4O[C@H]2[C@@H](O)C=C[C@H]3[C@H]1C5`, the inhibition entry in data set [2] is “Active”. For `Nc1ccc(CCN2CC[C@]34CCCC[C@H]3[C@H]2Cc2ccc(O)cc24)cc1`, in data set [3], the Ratio was > 10. For the compound `COC(=O)[C@H]1[C@@H](OC(=O)c2ccccc2)C[C@@H]2CC[C@H]1N2C` [COCAINE], in data set [4], the ED50 was determined as 0 µmol/kg. Take `CC1C2Cc3ccc(O)cc3C1(C)CCN2CCc1cc(O)c(O)cc1O.I` (stereo not drawn): the inhibition entry in data set [5] is “Active”. For the same compound, the Activity result in data set [6] is on record as “Non-toxic”. The result in data set [7] was Active. For the same compound, the inhibition entry in data set [8] and in data set [9] was “inactive” throughout. The 50% effective dose (ED50) in data set [4] came out at 0 µmol/kg. Regarding `COc1ccc(CCN2CCC3(C)c4cc(O)ccc4CC2C3C)cc1` (stereo not drawn), the Ratio in [1] is 8.

For `NCCc1cc(O)c(O)cc1O` [OXIDOPAMINE], the ED50 in data set [4] (setting [12]) turned out to be 6.8 µmol/kg.

Turning to `CC(N)Cc1cc(O)c(O)cc1O` (stereo not drawn), the ED50 in data set [4] (setting [12]) worked out at 4.2 µmol/kg. `CN(C)CCc1ccc(O)cc1` [HORDENINE]: in data set [4] (setting [12]), the ED50 was > 400 µmol/kg. Regarding `CC1C2Cc3ccc(O)cc3C1(C)CCN2CCc1ccccc1` (stereo not drawn) [PHENAZOCINE], the Ratio in [1] is 10. In the case of `CC(N)Cc1ccc(O)cc1` (stereo not drawn) [HYDROXYAMPHETAMINE], in [4] (setting [12]), the ED50 was determined as 13 µmol/kg. Turning to `C[C@H]1C2Cc3ccc(O)cc3C1(C)CCN2` (stereo partly drawn), the LD100 in data set [10] amounted to 10 mg/kg. Also, the Activity result in data set [11] was “Toxic”.
